The assay deals with T1, topoisomerase IIβ (TOP2B) (Homo sapiens, UniProt Q02880).
T1 construct: recombinant human TOP2B enzyme (Inspiralis)
As to the kind of experiment: kDNA decatenation assay with recombinant human TOP2B, agarose gel. The assay is classed as biochemical.

T1 sequence (Q02880 2-1626): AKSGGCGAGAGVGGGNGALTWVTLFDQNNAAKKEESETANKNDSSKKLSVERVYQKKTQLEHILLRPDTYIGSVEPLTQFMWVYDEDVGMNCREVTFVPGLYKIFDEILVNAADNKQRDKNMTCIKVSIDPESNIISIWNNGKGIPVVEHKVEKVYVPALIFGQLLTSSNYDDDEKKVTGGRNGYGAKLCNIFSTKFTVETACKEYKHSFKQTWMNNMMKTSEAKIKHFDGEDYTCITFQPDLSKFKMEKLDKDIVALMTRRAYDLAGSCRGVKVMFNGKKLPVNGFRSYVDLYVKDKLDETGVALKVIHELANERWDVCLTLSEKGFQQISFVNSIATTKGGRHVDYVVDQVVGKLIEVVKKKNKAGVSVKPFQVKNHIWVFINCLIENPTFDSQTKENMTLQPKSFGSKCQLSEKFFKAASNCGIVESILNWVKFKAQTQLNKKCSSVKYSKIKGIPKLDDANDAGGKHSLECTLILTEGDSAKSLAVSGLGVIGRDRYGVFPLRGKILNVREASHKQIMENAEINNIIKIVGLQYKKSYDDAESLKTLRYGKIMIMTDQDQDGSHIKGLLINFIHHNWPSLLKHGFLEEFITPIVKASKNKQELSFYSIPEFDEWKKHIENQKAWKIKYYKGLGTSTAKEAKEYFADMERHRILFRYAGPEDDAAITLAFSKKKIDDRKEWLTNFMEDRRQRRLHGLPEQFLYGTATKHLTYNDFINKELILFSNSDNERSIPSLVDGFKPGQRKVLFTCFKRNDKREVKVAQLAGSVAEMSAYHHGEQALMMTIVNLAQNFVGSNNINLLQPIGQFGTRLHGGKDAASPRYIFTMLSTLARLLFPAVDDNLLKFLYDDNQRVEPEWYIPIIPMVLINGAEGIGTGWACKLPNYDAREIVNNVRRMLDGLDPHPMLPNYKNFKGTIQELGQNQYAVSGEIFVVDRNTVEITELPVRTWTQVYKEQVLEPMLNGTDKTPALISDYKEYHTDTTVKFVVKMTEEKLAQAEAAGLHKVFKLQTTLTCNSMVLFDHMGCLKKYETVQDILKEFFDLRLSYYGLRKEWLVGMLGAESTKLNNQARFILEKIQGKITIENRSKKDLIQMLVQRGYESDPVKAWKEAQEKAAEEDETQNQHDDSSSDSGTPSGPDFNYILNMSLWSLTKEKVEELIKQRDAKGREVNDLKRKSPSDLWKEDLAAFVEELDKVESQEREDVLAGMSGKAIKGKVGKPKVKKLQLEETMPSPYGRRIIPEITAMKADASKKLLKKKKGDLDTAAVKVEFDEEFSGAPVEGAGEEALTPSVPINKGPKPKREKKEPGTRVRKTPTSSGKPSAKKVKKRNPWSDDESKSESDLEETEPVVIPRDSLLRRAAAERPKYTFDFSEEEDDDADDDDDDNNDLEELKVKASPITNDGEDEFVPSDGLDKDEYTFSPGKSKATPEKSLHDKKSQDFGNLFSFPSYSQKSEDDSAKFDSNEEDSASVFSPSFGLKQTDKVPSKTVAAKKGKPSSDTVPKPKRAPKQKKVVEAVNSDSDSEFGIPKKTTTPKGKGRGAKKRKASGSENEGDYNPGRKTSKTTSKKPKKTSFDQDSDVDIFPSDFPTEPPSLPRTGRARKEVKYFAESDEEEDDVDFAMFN

What is called IC50 is the concentration at which inhibition is half-maximal. As to `COc1cccc2c1C(=O)c1c(O)c3c(c(O)c1C2=O)C[C@@](O)(C(C)O)C[C@@H]3O[C@H]1C[C@H](N)[C@H](O)[C@H](C)O1` (some centres unmarked) [DAU-ol, daunorubicinol], the IC50 came to 17 ± 4 µM.

Take `COc1cccc2c1C(=O)c1c(O)c3c(c(O)c1C2=O)C[C@@](O)(C(C)=O)C[C@@H]3O[C@H]1C[C@H](N)[C@H](O)[C@H](C)O1` [DAU, daunorubicin]: the IC50 is 4 ± 1 µM.

The record behind these values is paper PMC12408707, “Daunorubicin and its hydroxy metabolite in cardiomyocytes: insights into cellular kinetics, toxicity, DNA damage, and dexrazoxane-induced cardioprotection” (Archives of Toxicology, 2025).
